Laboratory results published in ChEMBL document CHEMBL5537196, “Discovery of KIN-3248, An Irreversible, Next Generation FGFR Inhibitor for the Treatment of Advanced Tumors Harboring FGFR2 and/or FGFR3 Gene Alterations” (J Med Chem, 2024).
≈ marks a conversion by molar mass, not a printed value.

How the values were obtained:
[1] = system: SNU-16; test: Antitumor activity against human SNU-16 cells xenografted in mouse assessed as tumor growth inhibition at 5 mg/kg,po administrated once daily for 3 weeks relative to control; format: functional; conditions: SNU-16, 504 h, read-out: TGI
[2] = Dissociation constant, pKa of the compound; format: physicochemical
[3] = system: RT-112; test: Antitumor activity against human RT-112 cells xenografted in mouse assessed as tumor growth inhibition at 5 mg/kg,po administrated once daily for 3 weeks relative to control; format: functional; conditions: RT-112, 504 h, read-out: TGI
[4] = Half life in Sprague-Dawley rat at 5 mg/kg,iv administrated at 0.25 to 24 hrs by LC-MS/MS analysis; format: ADME, organism-based; conditions: in vivo, time 0.25-24 hrs
[5] = Solubility of compound in FaSSIF; format: ADME
[6] = system: SNU-16; test: Antitumor activity against human SNU-16 cells xenografted in mouse assessed as inhibition of tumor growth at po administrated once daily for 3 weeks; format: functional, organism-based
[7] = Toxicity in mouse xenografted with patient derived STO357 PDX cells assessed as body weight change at 5 to 15 mg/kg,po administrated once daily for 3 weeks; format: organism-based; conditions: in vivo, 504 h, dose 5-15 mg/kg
[8] = Aqueous solubility of the compound at pH 7.4; format: physicochemical
[9] = Intrinsic clearance in human liver microsomes; format: ADME, Microsome; conditions: read-out: CLH
[10] = Unbound drug concentration in mouse plasma xenografted with patient derived STO357 PDX cells at 15 mg/kg,po administration and measured after 12 hr by LC-MS/MS analysis; format: ADME, organism-based; conditions: in vivo
[11] = Antitumor activity against patient derived STO357 PDX cells xenografted in mouse assessed as downregulation of ERK phosphorylation at 15 mg/kg,po administration and measured after 7 hrs by MSD assay; format: functional, Homo sapiens
[12] = Cmax in Sprague-Dawley rat at 15 mg/kg,po administrated at 0.25 to 24 hrs by LC-MS/MS analysis; format: ADME, organism-based; conditions: in vivo, time 0.25-24 hrs
[13] = Total clearance in Sprague-Dawley rat at 5 mg/kg,iv administrated at 0.25 to 24 hrs by LC-MS/MS analysis; format: ADME, organism-based; conditions: in vivo, time 0.25-24 hrs
[14] = Lipophilicity, logP of compound; format: physicochemical; conditions: octanol/water
[15] = system: SNU-16; test: Antitumor activity against human SNU-16 cells xenografted in mouse assessed as tumor growth inhibition at 15 mg/kg,po administrated once daily for 3 weeks relative to control; format: functional; conditions: SNU-16, 504 h, read-out: TGI
[16] = Unbound drug concentration in mouse plasma xenografted with patient derived STO357 PDX cells at 15 mg/kg,po administration and measured after 15 mins by LC-MS/MS analysis; format: ADME, organism-based; conditions: in vivo, 0.25 h
[17] = system: RT-112; test: Antitumor activity against human RT-112 cells xenografted in mouse assessed as tumor growth inhibition at 15 mg/kg,po administrated once daily for 3 weeks relative to control; format: functional; conditions: RT-112, 504 h, read-out: TGI
[18] = Antitumor activity against patient derived STO357 PDX cells xenografted in mouse assessed as downregulation of ERK phosphorylation at 5 mg/kg,po administration and measured after 7 hrs by MSD assay; format: functional, Homo sapiens
[19] = AUC (0 to 24 hrs) in Sprague-Dawley rat at 15 mg/kg,po administrated at 0.25 to 24 hrs by LC-MS/MS analysis; format: ADME, organism-based; conditions: in vivo, time 0.25-24 hrs
[20] = Toxicity in mouse xenografted with human SNU-16 cells assessed as body weight change at 2 to 15 mg/kg,po administrated once daily for 3 weeks; format: organism-based; conditions: in vivo, 504 h, dose 2-15 mg/kg
[21] = Aqueous solubility of the compound at pH 2; format: physicochemical
[22] = Intrinsic clearance in human hepatocyte measured per 10^6 cells; format: ADME, cell-based; conditions: hepatocytes, read-out: CLH
[23] = Oral bioavailability in Sprague-Dawley rat at 15 mg/kg administrated at 0.25 to 24 hrs by LC-MS/MS analysis; format: ADME, organism-based; conditions: in vivo, time 0.25-24 hrs
[24] = Antitumor activity against patient derived STO357 PDX cells xenografted in mouse assessed as tumor growth inhibition at 5 mg/kg,po administrated once daily for 3 weeks relative to control; format: functional; conditions: Homo sapiens, 504 h, read-out: TGI
[25] = Toxicity in mouse xenografted with human RT-112 cells assessed as body weight loss at 15 mg/kg,po administrated once daily for 3 weeks; format: organism-based; conditions: in vivo, 504 h
[26] = Solubility of compound in FeSSIF; format: ADME
[27] = AUC (0 to 24 hrs) in Beagle dog at 15 mg/kg,po administrated at 0.25 to 24 hrs by LC-MS/MS analysis; format: ADME, organism-based, Canis lupus familiaris; conditions: in vivo, time 0.25-24 hrs
[28] = Cmax in Beagle dog at 15 mg/kg,po administrated at 0.25 to 24 hrs by LC-MS/MS analysis; format: ADME, organism-based, Canis lupus familiaris; conditions: in vivo, time 0.25-24 hrs
[29] = Half life in Beagle dog at 5 mg/kg,iv administrated at 0.25 to 24 hrs by LC-MS/MS analysis; format: ADME, organism-based, Canis lupus familiaris; conditions: in vivo, time 0.25-24 hrs
[30] = Unbound drug concentration in mouse plasma xenografted with patient derived STO357 PDX cells at 15 mg/kg,po administration and measured after 1 hr by LC-MS/MS analysis; format: ADME, organism-based; conditions: in vivo
[31] = Total clearance in Beagle dog at 5 mg/kg,iv administrated at 0.25 to 24 hrs by LC-MS/MS analysis; format: ADME, organism-based, Canis lupus familiaris; conditions: in vivo, time 0.25-24 hrs
[32] = system: RT-112; test: Antitumor activity against human RT-112 cells xenografted in mouse assessed as inhibition of tumor growth at po administrated once daily for 3 weeks; format: functional, organism-based
[33] = Solubility of compound in SGF; format: ADME
[34] = system: SNU-16; test: Antitumor activity against human SNU-16 cells xenografted in mouse assessed as tumor growth inhibition at 2 mg/kg,po administrated once daily for 3 weeks relative to control; format: functional; conditions: SNU-16, 504 h, read-out: TGI
[35] = Oral bioavailability in Beagle dog at 15 mg/kg administrated at 0.25 to 24 hrs by LC-MS/MS analysis; format: ADME, organism-based, Canis lupus familiaris; conditions: in vivo, time 0.25-24 hrs
[36] = system: RT-112; test: Antitumor activity against human RT-112 cells xenografted in mouse assessed as tumor growth inhibition at 2 mg/kg,po administrated once daily for 3 weeks relative to control; format: functional; conditions: RT-112, 504 h, read-out: TGI

C=CC(=O)N1C[C@@H](n2nc(C#Cc3c(F)cc4c(ncn4C4CC4)c3F)c(C(N)=O)c2NC)C[C@@H]1COC [RESIGRATINIB]
inhibition in vivo at 5 mg/kg [1]: 81% | pKa [2]: 2.22 | inhibition in vivo at 5 mg/kg [3]: 91% | half-life [4]: 5.46 h | solubility [5]: 400 µg/mL (≈ 764 µM) | Activity [6]: Dose-Dependent Effect | Activity [7]: Non-Toxic | solubility [8]: 69.7 µM (≈ 36.5 µg/mL) | microsomal CLint [9]: 59.6 µL/min/mg | Drug uptake(free) [10]: Not Active | Activity [11]: 75% | Cmax [12]: 1490 ng/mL | clearance [13]: 16.1 mL/min/kg | logP [14]: 2.5 | inhibition in vivo at 15 mg/kg [15]: 93% | Cp(f) [16]: ~ 100 ng/ml | inhibition in vivo at 15 mg/kg [17]: 99% | Activity [18]: 25% | AUC(0-t) [19]: 3740 ng·h/mL | Activity [20]: Non-Toxic | solubility [21]: 301 µM (≈ 158 µg/mL) | hepatocyte CLint [22]: 7.2 µL/min/1e6 cells | bioavailability [23]: 24.3% | inhibition in vivo at 5 mg/kg [24]: 90% | Activity [25]: 5.4% | solubility [26]: 300 µg/mL (≈ 573 µM) | AUC(0-t) [27]: 2100 ng·h/mL | Cmax [28]: 815 ng/mL | half-life [29]: 6.89 h | Cp(f) [30]: ~ 50 ng/ml | clearance [31]: 23.9 mL/min/kg | Activity [32]: Dose-Dependent Effect | solubility [33]: 800 µg/mL (≈ 1530 µM) | inhibition in vivo at 2 mg/kg [34]: 69% | bioavailability [35]: 17.5% | inhibition in vivo at 2 mg/kg [36]: 80%
